ChEMBL document CHEMBL4819064, “Discovery of new pyrimidopyrrolizine/indolizine-based derivatives as P-glycoprotein inhibitors: Design, synthesis, cytotoxicity, and MDR reversal activities” (Eur J Med Chem, 2021)

Legend:
A2780 = experiment: Cytotoxicity against human A2780 cells assessed as reduction in cell viability incubated for 72 hrs by MTT assay; conditions: A2780, 72 h
HT-29 = experiment: Cytotoxicity against human HT29 cells assessed as reduction in cell viability incubated for 72 hrs by MTT assay; conditions: HT-29, 72 h
MCF7 [1] = experiment: Cell cycle arrest in human MCF7 cells assessed as accumulation at G2/M phase at 0.5 uM incubated for 72 hrs by PI staining based flow cytometric analysis (reference value: 15 +/- 1.5 %); type: functional
MCF7 [2] = experiment: Cell cycle arrest in human MCF7 cells assessed as accumulation at S phase at 0.125 uM incubated for 72 hrs by PI staining based flow cytometric analysis (reference value: […] +/- 2.6 %); type: functional
NCI/ADR-RES [3] = experiment: Synergistic cytotoxicity against human MCF7/ADR cells assessed as combination index at 0.25 uM after 72 hrs in presence of 1 uM doxorubicin by MTT assay; type: functional
MCF7 [4] = experiment: Cell cycle arrest in human MCF7 cells assessed as accumulation at S phase at 0.5 uM incubated for […] staining based flow cytometric analysis (reference value: […] +/- 2.6 %); type: functional
MCF7 [5] = experiment: Cytotoxicity against human MCF7 cells assessed as reduction in cell viability incubated for 72 hrs by MTT assay; type: functional, cell-based; conditions: MCF7, 72 h
[6] = biological target: ATP-dependent translocase ABCB1 (Homo sapiens, UniProt P08183); experiment: Inhibition of P-gp activity in human MCF7/ADR cells after 72 hrs by RT-PCR analysis; type: cell-based; conditions: nci/adr-res, at 125 to 1000 nM, dose 125-1000 nM
Chain of ATP-dependent translocase ABCB1 (P08183 whole entry): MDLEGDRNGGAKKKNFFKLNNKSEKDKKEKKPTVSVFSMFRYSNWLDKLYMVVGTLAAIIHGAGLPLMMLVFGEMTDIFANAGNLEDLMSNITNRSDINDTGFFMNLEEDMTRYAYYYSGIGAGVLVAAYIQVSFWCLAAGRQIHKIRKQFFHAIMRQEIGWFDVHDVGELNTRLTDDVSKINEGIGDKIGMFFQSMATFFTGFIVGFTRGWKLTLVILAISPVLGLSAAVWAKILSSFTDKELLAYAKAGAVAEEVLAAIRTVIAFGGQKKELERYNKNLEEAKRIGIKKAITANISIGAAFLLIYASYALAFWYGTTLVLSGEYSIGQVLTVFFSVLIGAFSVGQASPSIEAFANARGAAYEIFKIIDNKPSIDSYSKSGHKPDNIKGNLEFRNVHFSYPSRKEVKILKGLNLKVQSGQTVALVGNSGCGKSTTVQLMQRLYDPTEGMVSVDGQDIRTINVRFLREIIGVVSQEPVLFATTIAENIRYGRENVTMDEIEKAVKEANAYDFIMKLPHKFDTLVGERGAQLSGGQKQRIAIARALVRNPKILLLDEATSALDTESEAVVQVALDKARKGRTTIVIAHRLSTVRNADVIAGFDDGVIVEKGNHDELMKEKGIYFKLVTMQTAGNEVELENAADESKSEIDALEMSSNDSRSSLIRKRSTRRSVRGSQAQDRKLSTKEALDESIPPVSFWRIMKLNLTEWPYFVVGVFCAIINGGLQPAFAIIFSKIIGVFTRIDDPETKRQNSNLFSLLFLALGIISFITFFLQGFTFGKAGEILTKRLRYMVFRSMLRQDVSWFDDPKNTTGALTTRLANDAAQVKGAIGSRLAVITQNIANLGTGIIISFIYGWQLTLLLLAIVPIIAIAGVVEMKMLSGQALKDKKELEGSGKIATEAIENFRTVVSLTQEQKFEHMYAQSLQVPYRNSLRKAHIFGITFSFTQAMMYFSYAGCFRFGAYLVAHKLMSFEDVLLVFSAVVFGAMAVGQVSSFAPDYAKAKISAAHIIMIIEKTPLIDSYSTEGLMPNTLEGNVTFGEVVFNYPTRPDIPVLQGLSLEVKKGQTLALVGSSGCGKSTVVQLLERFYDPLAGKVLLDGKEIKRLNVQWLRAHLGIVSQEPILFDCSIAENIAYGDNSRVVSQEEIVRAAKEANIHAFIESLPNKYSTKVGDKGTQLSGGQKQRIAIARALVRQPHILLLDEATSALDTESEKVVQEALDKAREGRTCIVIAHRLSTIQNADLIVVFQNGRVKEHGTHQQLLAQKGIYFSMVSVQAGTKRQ

MCF7 [7] = experiment: Induction of apoptosis in human MCF7 cells assessed as late apoptotic cells at 0.5 uM after 72 hrs by Annexin V-FITC/propidium iodide staining-based flow cytometric analysis (reference value: 2.8 %); type: functional
MCF7 [8] = experiment: Induction of apoptosis in human MCF7 cells assessed as viable cells at 0.250 uM after 72 hrs by Annexin V-FITC/propidium iodide staining-based flow cytometric analysis (reference value: 86.4 %); type: functional; conditions: read-out: Activity
MCF7 [9] = experiment: Induction of apoptosis in human MCF7 cells assessed as late apoptotic cells at 0.125 uM after 72 hrs by Annexin V-FITC/propidium iodide staining-based flow cytometric analysis (reference value: 2.8 %); type: functional
MCF7 [10] = experiment: Cell cycle arrest in human MCF7 cells assessed as accumulation at pre-G1 phase at 0.250 uM incubated for 72 hrs by PI staining based flow cytometric analysis (reference value: 1.6 +/- 0.2 %); type: functional; conditions: dose 0.25 µM
NCI/ADR-RES [11] = experiment: Synergistic cytotoxicity against human MCF7/ADR cells assessed as combination index at 0.5 uM after 72 hrs in presence of 0.25 uM doxorubicin by MTT assay; type: functional

N#Cc1c2n(c3c(=O)n(-c4ccccc4)cnc13)CCCC2
IC50 (A2780): 0.06 µM | IC50 (HT-29): 1.07 µM | Activity (MCF7 [1]): 18.9% | Activity (MCF7 [2]): 13.4% | CI (NCI/ADR-RES [3]): 0.433 | Activity (MCF7 [4]): 4.1% | IC50 (MCF7 [5]): 0.3 µM | inhibition (INH) [6]: Dose-Dependent Effect | Activity (MCF7 [7]): 2.1% | viability at 0.25 µM (MCF7 [8]): 68.2% | Activity (MCF7 [9]): 1.7% | Activity (MCF7 [10]): 1.2% | CI (NCI/ADR-RES [11]): 1.9
